Structures can show the parent of a compound that is named as a salt.

Sequence of ileal bile acid cotransporter (iBAT) (Q12908 whole entry): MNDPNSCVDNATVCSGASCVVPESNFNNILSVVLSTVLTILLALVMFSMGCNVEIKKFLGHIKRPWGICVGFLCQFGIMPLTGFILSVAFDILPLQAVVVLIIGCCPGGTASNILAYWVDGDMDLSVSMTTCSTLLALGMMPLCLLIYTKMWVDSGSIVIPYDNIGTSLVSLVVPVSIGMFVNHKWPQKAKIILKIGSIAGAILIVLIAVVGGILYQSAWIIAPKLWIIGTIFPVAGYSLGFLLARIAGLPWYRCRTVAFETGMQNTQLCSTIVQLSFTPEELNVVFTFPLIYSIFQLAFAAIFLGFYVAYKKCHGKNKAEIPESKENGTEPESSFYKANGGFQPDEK

The experiment deals with ileal bile acid cotransporter (iBAT) (Homo sapiens (Human), UniProt Q12908). The experiment can be described thus: Human iBAT inhibition: [3H]-taurocholate uptake into HEK293 cells expressing human iBAT. It counts as cell-based. Conditions: HEK293 cells transduced with human iBAT Bacmam virus, 90 minutes at ambient temperature, mean of at least 2 datapoints. As to the method: Method for Determination of Human iBAT Inhibition:
In preparation for measurement of bile acid uptake into cells expressing the ileal bile acid cotransporter (iBAT), HEK293 cells were cultured in DMEM/F12 supplemented with 10% FBS. Twenty four hours prior to running an experiment, cells were harvested when at a confluence of 80-90%. Cells were seeded in poly-d-lysine coated plates at 50,000 cells per well, and human iBAT Bacmam virus was added such that each well contains 3.67×10e6 pfu (73.4pfu/cell). Each assay plate was covered with Breathe Easy Seal and placed in an incubator for 24 hours to allow expression of the transporter.
On the day of the uptake experiment, 10 mM HEPES was added to Hank's Balanced Salt Solution, and the pH was adjusted to 7.4 with TRIS (HBSSH). The assay buffer was prepared by adding […] [^3H]-taurocholate and 10 μM cold taurocholate to room temperature HBSSH. A separate washing buffer was prepared by adding 10 μM cold taurocholate to HBSSH (˜30 ml per assay plate) and placed on ice. Using 100% DMSO, 8 point, 3-fold dilution curves for each test compound was prepared starting at 200 μM. Similarly, an 8 point dose response curve was prepared of the control compound [(3R,5R)-3-butyl-3-ethyl-7,8-bis(methyloxy)-5-phenyl-2,3,4,5-tetrahydro-1,4-benzothiazepine 1,1-dioxide (Brieaddy, L. E. WO9605188, 1996)] starting at 1.8 mM. Drug plates were created by adding 3 μL of each concentration to a v-bottom 96-well plate then diluted 60-fold with 177 μL of assay buffer. Plates were removed from the incubator and allowed to cool to ambient temperature. Media was aspirated, and wells were washed once with 300 μL HBSSH. 50 μL of each dose response curve concentration was added in triplicate by column to the assay plates, reserving column 10 for control (assay buffer+1.67% DMSO) and columns 11 and 12 for the control compound. Plates were incubated at ambient temperature for 90 minutes then the plates were aspirated then washed 1× with 300 μL of wash buffer. 220 μL of Microscint 20 was added to each well, and the plates were sealed. The amount of [^3H]-taurocholate in cell lysate was quantitated using a microplate scintillation counter on the following day.
IC50's can be generated using the formula, y=(Vmax*x^n)/(K^n+x^n).
For the compound `CCCC[C@]1(CC)CS(=O)(=O)c2cc(CN(CCS(=O)(=O)O)CCS(=O)(=O)O)c(OC)cc2[C@@H](c2ccccc2)N1` [Example 36, 2,2′-({[(3R,5R)-3-butyl-3-ethyl-7-(methyloxy)-1,1-dioxido-5-phenyl-2,3,4,5-tetrahydro-1,4-benzothiazepin-8-yl]methyl}imino)diethanesulfonic acid trifluoroacetate salt], 365 nM corresponded to half-maximal inhibition (IC50). For `CCCC[C@]1(CC)CS(=O)(=O)c2cc(/C=C/C(=O)O)c(OC)cc2[C@@H](c2ccccc2)N1` [Example 9, (2E)-3-[(3R,5R)-3-butyl-3-ethyl-7-(methyloxy)-1,1-dioxido-5-phenyl-2,3,4,5-tetrahydro-1,4-benzothiazepin-8-yl]-2-propenoic acid ammonium salt], the IC50 amounted to 3 nM. The compound `CCCC[C@]1(CC)CS(=O)(=O)c2cc(CN[C@@H](CSSC[C@H](N)C(=O)O)C(=O)O)c(OC)cc2[C@@H](c2ccccc2)N1` [Example 53, N-{[(3R,5R)-3-butyl-3-ethyl-7-(methyloxy)-1,1-dioxido-5-phenyl-2,3,4,5-tetrahydro-1,4-benzothiazepin-8-yl]methyl}-L-cystine bis-ammonium salt] returned an IC50 of 67 nM.

`CCCC[C@]1(CC)CS(=O)(=O)c2cc(CCC(=O)NS(C)(=O)=O)c(OC)cc2[C@@H](c2ccccc2)N1` [Example 11, 3-[(3R,5R)-3-butyl-3-ethyl-7-(methyloxy)-1,1-dioxido-5-phenyl-2,3,4,5-tetrahydro-1,4-benzothiazepin-8-yl]-N-(methylsulfonyl)propanamide] came in with an IC50 of 20 nM. As for `CCCC[C@]1(CC)CS(=O)(=O)c2cc(CN(CC(=O)O)CC(=O)O)c(OC)cc2[C@@H](c2ccccc2)N1` [Example 7, 2,2′-({[(3R,5R)-3-butyl-3-ethyl-7-(methyloxy)-1,1-dioxido-5-phenyl-2,3,4,5-tetrahydro-1,4-benzothiazepin-8-yl]methyl}imino)diacetic acid hydrochloride salt], the figure is 145 nM. `CCCC[C@]1(CC)CS(=O)(=O)c2cc(CNC(CC(=O)O)CC(=O)O)c(OC)cc2[C@@H](c2ccccc2)N1O` [Example 50, 3-({[(3R,5R)-3-butyl-3-ethyl-4-hydroxy-7-(methyloxy)-1,1-dioxido-5-phenyl-2,3,4,5-tetrahydro-1,4-benzothiazepin-8-yl]methyl}amino)pentanedioic acid trifluoroacetate salt] had a half-inhibitory concentration (IC50) of 51 nM. As for `CCCC[C@]1(CC)CS(=O)(=O)c2cc(CS(=O)(=O)O)c(OC)cc2[C@@H](c2ccccc2)N1` [Example 5, [3R,5R)-3-butyl-3-ethyl-7-(methyloxy)-1,1-dioxido-5-phenyl-2,3,4,5-tetrahydro-1,4-benzothiazepin-8-yl]methanesulfonic acid trifluoroacetate salt], the figure is 4 nM; as for `CCCC[C@]1(CC)CS(=O)(=O)c2cc(CNCC(=O)O)c(OC)cc2[C@@H](c2ccccc2)N1` [Example 25, N-{[(3R,5R)-3-butyl-3-ethyl-7-(methyloxy)-1,1-dioxido-5-phenyl-2,3,4,5-tetrahydro-1,4-benzothiazepin-8-yl]methyl}glycine], 6 nM. `CCCC[C@]1(CC)CS(=O)(=O)c2cc(CNC(=O)C(=O)O)c(OC)cc2[C@@H](c2ccccc2)N1` [Example 64, ({[(3R,5R)-3-butyl-3-ethyl-7-(methyloxy)-1,1-dioxido-5-phenyl-2,3,4,5-tetrahydro-1,4-benzothiazepin-8-yl]methyl}amino)(oxo)acetic acid] registered an IC50 of 6 nM. In turn, `CCCC[C@]1(CC)CS(=O)(=O)c2cc(CN[C@@H](CC(=O)O)C(=O)O)c(OC)cc2[C@@H](c2ccccc2)N1` [Example 27, N-{[(3R,5R)-3-butyl-3-ethyl-7-(methyloxy)-1,1-dioxido-5-phenyl-2,3,4,5-tetrahydro-1,4-benzothiazepin-8-yl]methyl}-L-aspartic acid trifluoroacetate salt] gave a 50% inhibitory concentration (IC50) of 47 nM.

The values above are taken from US9040518B2, “Chemical compounds” (GlaxoSmithKline LLC, priority 2010, dated 2015).
